Laboratory results from PubChem BioAssay (NCI).
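Exposure lasted 48 hours, with cells grown in 96-well plates and compounds tested at five concentrations. TGI is the concentration that stops growth completely.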

Assays:
Test in all cases: growth of human tumour cells (NCI), 48 h
NCI-H23 lung = system: NCI-H23 lung
COLO 205 colon = system: COLO 205 colon
SF-268 CNS = system: SF-268 CNS
SNB-75 CNS = system: SNB-75 CNS
SK-MEL-2 melanoma = system: SK-MEL-2 melanoma
SF-295 CNS = system: SF-295 CNS
NCI-H522 lung = system: NCI-H522 lung
HCC-2998 colon = system: HCC-2998 colon
HL-60(TB) leukemia = system: HL-60(TB) leukemia
LOX IMVI melanoma = system: LOX IMVI melanoma
CCRF-CEM leukemia = system: CCRF-CEM leukemia

## CCOC(=O)c1c(N)sc2c1CC(C)CC2 (configuration not stated)
NCI-H23 lung
  TGI: > 100 µM
COLO 205 colon
  TGI: 89.5 µM
SF-268 CNS
  TGI: > 100 µM
SNB-75 CNS
  TGI: 98.1 µM
SK-MEL-2 melanoma
  TGI: > 100 µM
SF-295 CNS
  TGI: > 100 µM
NCI-H522 lung
  TGI: 40.5 µM
HCC-2998 colon
  TGI: 45.6 µM
HL-60(TB) leukemia
  TGI: 23.2 µM
LOX IMVI melanoma
  TGI: > 100 µM

## Nc1nc(Cl)cc(NCC2(CCO)CCC2)n1
CCRF-CEM leukemia
  TGI: > 100 µM
NCI-H23 lung
  TGI: > 100 µM
SNB-75 CNS
  TGI: > 10 µM
SK-MEL-2 melanoma
  TGI: > 100 µM
SF-295 CNS
  TGI: > 10 µM
NCI-H522 lung
  TGI: > 100 µM
HCC-2998 colon
  TGI: > 100 µM
HL-60(TB) leukemia
  TGI: > 100 µM
LOX IMVI melanoma
  TGI: > 100 µM

## COC(=O)Nc1nc2ccc(NS(=O)(=O)c3cccs3)cc2[nH]1
CCRF-CEM leukemia
  TGI: > 100 µM
NCI-H23 lung
  TGI: > 100 µM
COLO 205 colon
  TGI: > 100 µM
SF-268 CNS
  TGI: > 100 µM
SNB-75 CNS
  TGI: 67.8 µM
SK-MEL-2 melanoma
  TGI: > 100 µM
SF-295 CNS
  TGI: 70.9 µM
NCI-H522 lung
  TGI: 29.9 µM
HL-60(TB) leukemia
  TGI: 55.5 µM
LOX IMVI melanoma
  TGI: > 100 µM

## COC(=O)C1CCC(=O)N1C(c1ccc(OC)cc1)c1cc(OC)c(OC)c(OC)c1 (configuration not stated)
CCRF-CEM leukemia
  TGI: > 100 µM
NCI-H23 lung
  TGI: > 100 µM
COLO 205 colon
  TGI: 0.802 µM
SF-268 CNS
  TGI: > 100 µM
SNB-75 CNS
  TGI: > 94.7 µM
SK-MEL-2 melanoma
  TGI: > 100 µM
SF-295 CNS
  TGI: 0.465 µM
NCI-H522 lung
  TGI: 0.212 µM
HCC-2998 colon
  TGI: 0.6 µM
LOX IMVI melanoma
  TGI: > 36.9 µM

## C(=N\c1nc2cc3sc(/N=C/c4ccccc4)nc3cc2s1)/c1ccccc1
CCRF-CEM leukemia
  TGI: 42 µM
NCI-H23 lung
  TGI: > 100 µM
COLO 205 colon
  TGI: > 100 µM
SF-268 CNS
  TGI: > 100 µM
SNB-75 CNS
  TGI: > 100 µM
SK-MEL-2 melanoma
  TGI: > 100 µM
SF-295 CNS
  TGI: > 100 µM
NCI-H522 lung
  TGI: 97.4 µM
HCC-2998 colon
  TGI: > 100 µM
LOX IMVI melanoma
  TGI: > 100 µM

## O=C1C(Cl)=C(Cl)C(=O)C(CCNc2nccs2)=C1Cl
CCRF-CEM leukemia
  TGI: > 100 µM
NCI-H23 lung
  TGI: 59.3 µM
COLO 205 colon
  TGI: > 100 µM
SF-268 CNS
  TGI: > 100 µM
SNB-75 CNS
  TGI: 69.5 µM
SK-MEL-2 melanoma
  TGI: 75.6 µM
SF-295 CNS
  TGI: > 100 µM
NCI-H522 lung
  TGI: 51.3 µM
HCC-2998 colon
  TGI: > 100 µM
HL-60(TB) leukemia
  TGI: > 100 µM

## Nn1c(CCCCCCCCc2nnc(-c3c(O)ccc4ccccc34)n2N)nnc1-c1c(O)ccc2ccccc12
NCI-H23 lung
  TGI: > 100 µM
COLO 205 colon
  TGI: > 100 µM
SF-268 CNS
  TGI: > 100 µM
SNB-75 CNS
  TGI: > 100 µM
SK-MEL-2 melanoma
  TGI: > 100 µM
SF-295 CNS
  TGI: > 100 µM
NCI-H522 lung
  TGI: > 100 µM
HCC-2998 colon
  TGI: > 100 µM
HL-60(TB) leukemia
  TGI: > 100 µM
LOX IMVI melanoma
  TGI: > 100 µM

## O=S(=O)(O)c1ccc(N=Nc2ccccc2)cc1
CCRF-CEM leukemia
  TGI: > 100 µM
NCI-H23 lung
  TGI: > 100 µM
COLO 205 colon
  TGI: > 100 µM
SF-268 CNS
  TGI: > 100 µM
SK-MEL-2 melanoma
  TGI: > 100 µM
SF-295 CNS
  TGI: > 100 µM
NCI-H522 lung
  TGI: > 100 µM
HCC-2998 colon
  TGI: > 100 µM
HL-60(TB) leukemia
  TGI: > 100 µM
LOX IMVI melanoma
  TGI: > 100 µM

## COC(=O)CCc1ccc(CCC(=O)OC)cc1
CCRF-CEM leukemia
  TGI: > 100 µM
NCI-H23 lung
  TGI: > 100 µM
SF-268 CNS
  TGI: > 100 µM
SNB-75 CNS
  TGI: > 100 µM
SK-MEL-2 melanoma
  TGI: > 100 µM
SF-295 CNS
  TGI: > 100 µM
NCI-H522 lung
  TGI: > 100 µM
HCC-2998 colon
  TGI: > 100 µM
HL-60(TB) leukemia
  TGI: > 100 µM
LOX IMVI melanoma
  TGI: > 100 µM

## Nc1ncnc2c1ncn2[C@H]1C=C[C@@H](NO)C1
CCRF-CEM leukemia
  TGI: > 100 µM
NCI-H23 lung
  TGI: > 100 µM
COLO 205 colon
  TGI: > 100 µM
SF-268 CNS
  TGI: > 100 µM
SNB-75 CNS
  TGI: > 100 µM
SK-MEL-2 melanoma
  TGI: > 100 µM
SF-295 CNS
  TGI: > 100 µM
NCI-H522 lung
  TGI: > 100 µM
HCC-2998 colon
  TGI: > 100 µM
LOX IMVI melanoma
  TGI: > 100 µM

## NCC(=O)Nc1ccccc1
NCI-H23 lung
  TGI: > 100 µM
SF-268 CNS
  TGI: > 100 µM
SNB-75 CNS
  TGI: > 100 µM
SK-MEL-2 melanoma
  TGI: > 100 µM
SF-295 CNS
  TGI: > 100 µM
NCI-H522 lung
  TGI: > 100 µM
HCC-2998 colon
  TGI: > 100 µM
LOX IMVI melanoma
  TGI: > 100 µM
